# Assay results published in patent publication US20250281419A1, “LIPID AMINES” (ModernaTX, Inc., priority 2021, published 2025).
# Columns and labels:
# [1] = test system: HeLa cells; assay: CFTR protein expression assay in HeLa cells (LNPs of Example 2, immunofluorescence); assay type: cell-based, Human; conditions: compared to buffer (PBS) control, 5 h transfection, 24 h incubation, N=4 wells
# Description: Lipid nanoparticles were prepared using ethanol drop nanoprecipitation followed by solvent exchange into suitable aqueous buffer using dialysis. An exemplary lipid nanoparticle composition can be prepared by a process where lipids are dissolved in ethanol at a concentration of 12.5 mM and molar ratios of 33:15:11:39.5:1.5 (e.g., ionizable lipid:SA46:phospholipid:cholesterol:PL1). Lipid to mRNA is maintained at a N/P ratio of 4.9. Then mRNA is diluted with 25 mM sodium acetate (pH 5.0) and combined with the lipid mixture at a volume ratio of 3:1 (aqueous: ethanol). Resulting formulations are dialyzed against 20 mM tris/8% sucrose/70 mM sodium chloride (pH 7.4) at a volume of 300 times that of the primary product using Slide-A-Lyzer dialysis cassettes (Thermo Scientific, Rockford, IL, USA) with a molecular cutoff of 10 KDa for at least 18 h. The first dialysis is carried out at room temperature in a digital orbital shaker (VWR, Radnor, PA, USA) at 85 rpm for 3 h and then dialyzed overnight at 4° C. Formulations are concentrated using Amicon ultra-centrifugal filters (EMD Millipore, Billerica, MA, USA), passed through a 0.22-μm filter and stored at 4° C. until use. Lipid nanoparticle solutions are typically adjusted to specific mRNA concentrations between 0.1 and 1 mg/mL. LNPs were prepared according to Example 2. To evaluate LNP cellular uptake and protein expression in vitro, HeLa cells from ATCC.org (ATCC CCL-2) are used. The cells are cultured in complete Minimum Essential Medium (MEM) and are plated in 96 well Cell Carrier Ultra plate with PDL coated surface (PerkinElmer) prior to running an experiment. Buffer control (PBS) and LNPs encapsulating cystic fibrosis transmembrane conductance regulator (CFTR) mRNA were dosed with MEM media in the absence of serum (N=4 replicate wells). LNP transfected cells were incubated for 5 h, followed by media removal and supplementation with complete MEM media. Cells were further incubated in complete MEM media overnight (24 h). Following 24 hr incubation, the cells were fixed with PFA and processed for immunofluorescence (IF) using an anti-CFTR rabbit monoclonal antibody. Briefly, the cells were permeabilized with 0.5% TX-100 for 10 min, blocked with 3% bovine serum albumin (BSA)+PBST for 1 hr at room temperature, and incubated with primary anti-CFTR monoclonal antibody overnight at 4° C. Following primary antibody incubation, the cells were incubated with Alexa 488 conjugated secondary antibody for 30 min, and stained with DAPI and HCS CellMask Blue stain. Between different incubation steps the cells were either washed with PBS or PBST. Cells were imaged using Opera Phoenix spinning disk confocal microscope (PerkinElmer), and CFTR protein expression was detected using the 488 nm channel. The image analysis was performed in Harmony 4.9, with main analysis output being CFTR intensity per cell. The results shown in Table 3a show fold-change in CFTR signal intensity per cell compared to buffer (PBS) control (nanoparticle composition: IL1:Lipid Amine:DSPC:Chol:PL1). The results shown in Table 3b show fold-change in CFTR signal intensity per cell compared to buffer (PBS) control (nanoparticle composition: IL1:Lipid Amine:DPPC:Chol:PL1).
# [2] = test system: HeLa cells; assay: CFTR protein expression assay in HeLa cells (LNPs analogous to Example 4, lipid amine post-added); assay type: cell-based, Human; conditions: LNP prepared analogous to Example 4 with CFTR mRNA, vs buffer (PBS) control, 5 hr transfection, 24 hr incubation, N=4 wells
# Description: Lipid nanoparticle compositions were prepared in a manner analogous to that in example 4. To evaluate LNP cellular uptake and protein expression In Vitro, HeLa cells from ATCC.org (ATCC CCL-2) was used. The cells were cultured in complete Minimum Essential Medium (MEM) and were plated in 96 well Cell Carrier Ultra plate with PDL coated surface (PerkinElmer) prior to running an experiment.
# Buffer control (PBS) and LNPs encapsulating cystic fibrosis transmembrane conductance regulator (CFTR) mRNA were dosed with MEM media in the absence of serum (N=4 replicate wells). LNP transfected cells were incubated for 5 hr, followed by media removal and supplementation with complete MEM media. Cells were further incubated in complete MEM media overnight (24 hr).
# Following 24 hr incubation, the cells were fixed with PFA and processed for immunofluorescence (IF) using an anti-CFTR rabbit monoclonal antibody. Briefly, the cells were permeabilized with 0.5% TX-100 for 10 min, blocked with 3% bovine serum albumin (BSA)+PBST for 1 hr at room temperature, and incubated with primary anti-CFTR monoclonal antibody overnight at 4° C. […] Cells were imaged using Opera Phoenix spinning disk confocal microscope (PerkinElmer), and CFTR protein expression was detected using the 488 nm channel. […]
# [3] = CFTR mRNA nanoparticle biophysical data (DLS, Ribogreen); assay type: physicochemical
# Description: Lipids were dissolved in ethanol at a concentration of 24 mg/mL and molar ratios of 49.0:11.2:39.3:0.5 (IL1:DSPC:cholesterol:PEG-DMG-2K) and mixed with the acidification buffer (45 mM acetate buffer at pH 4). The lipid solution and acidification buffer were mixed using a multi-inlet vortex mixer at a 3:7 volumetric ratio of lipid:buffer for mixer 1 and mixer 2 and a 1:3 volumetric ratio of lipid:buffer (25% ethanol) for mixer 3. After a 5 second residence time, the resulting nanoparticles were mixed with 55 mM sodium acetate at pH 5.6 at a volumetric ratio of 5:7 of nanoparticle: buffer. See Table 4a for mixing parameters. The resulting dilute nanoparticles were then buffer exchanged and concentrated using tangential flow filtration (TFF) into a final buffer containing 5 mM sodium acetate pH 5.0. Then a 70% sucrose solution in 5 mM acetate buffer at pH 5 is subsequently added.
# The resulting nanoparticles at a lipid concentration of 7.33 mg/mL in 5 mM acetate (pH 5) and 75 g/L sucrose were mixed with mRNA (luciferase or CFTR) at a concentration of 0.625 mg/mL in 42.5 mM sodium acetate pH 5.0, with N: P of 4.93. The nanoparticle solution and […] were mixed using a multi-inlet vortex mixer at a 3:2 volumetric ratio of nanoparticle:mRNA. Once loaded with mRNA, these intermediate nanoparticles underwent a 300 second residence time prior addition of neutralization buffer containing 120 mM TRIS pH 8.12 at a volumetric ratio of 5:1 of nanoparticle: buffer.
# For HeLa studies evaluating CFTR protein expression, the intermediate nanoparticle formulation (1 mL, 0.415 mg mRNA) is mixed with a buffer containing 20 mM TRIS (pH 7.5), 0.9 mg/mL PEG-DMG-2K and lipid amine SA52 (647.1 nmol) at a volumetric ratio of 6:1 of nanoparticle: buffer. The resulting nanoparticle suspension underwent concentration using a centrifugal filtration device (100 kDa molecular weight cut-off) and was diluted in running buffer (20 mM TRIS, 14.3 mM sodium acetate, and 32 g/L sucrose, pH 7.5) with a 300 mM NaCl solution to a final buffer matrix containing 70 mM NaCl. […]
# [4] = LNP IL1:Lipid Amine:DPPC:Chol:PL1 with CFTR mRNA
# [5] = LNP IL1:Lipid Amine:DSPC:Chol:PL1 with CFTR mRNA
SMILES,"Average fold-change in CFTR signal intensity per cell ± standard deviation [1, 4] [fold-change]","Average fold-change in CFTR signal intensity per cell ± standard deviation [1, 5] [fold-change]",Average fold-change in CFTR signal intensity per cell compared to buffer control ± standard deviation [2] [fold-change],"Diameter ([3]; CFTR mRNA nanoparticle with lipid amine (IL1:DSPC:cholesterol:PEG-DMG-2K core), DLS) [nm]","PDI ([3]; CFTR mRNA nanoparticle with lipid amine, DLS)","% Encapsulation (Ribogreen) ([3]; CFTR mRNA nanoparticle with lipid amine, Ribogreen assay) [%]"
"CC[C@H](CC[C@@H](C)[C@H]1CC[C@H]2[C@@H]3CC=C4C[C@@H](OC(=O)NCCCCN(C)C)CC[C@]4(C)[C@H]3CC[C@]12C)C(C)C [SA47, (3S,8S,9S,10R,13R,14S,17R)-17-((2R,5R)-5-Ethyl-6-methylheptan-2-yl)-10,13-dimethyl-2,3,4,7,8,9,10,11,12,13,14,15,16,17-tetradecahydro-1H-cyclopenta[a]phenanthren-3-yl (4-(dimethylamino)butyl)carbamate]",10.9 ± 0.4,4.6 ± 0.4,,,,
"CC(C)CCC[C@@H](C)[C@H]1CC[C@H]2[C@@H]3CC=C4C[C@@H](OC(=O)CCC(=O)N5CCN(C)CCN(C)CC5)CC[C@]4(C)[C@H]3CC[C@]12C [SA52, (3S,8S,9S,10R,13R,14S,17R)-10,13-Dimethyl-17-((R)-6-methylheptan-2-yl)-2,3,4,7,8,9,10,11,12,13,14,15,16,17-tetradecahydro-1H-cyclopenta[a]phenanthren-3-yl 4-(4,7-dimethyl-1,4,7-triazonan-1-yl)-4-oxobutanoate]",9.3 ± 1.2,2.3 ± 0.1,3.4 ± 0.5,72.4,0.11,96.6
